Results taken from US6362166B1, “Antipicornaviral compounds and methods for their use and preparation” (Agouron Pharmaceuticals, Inc., priority 1996, dated 2002).
Where two headings read alike, the source gives them in different places.

Assays:
HI-HeLa cells = experiment: Cytotoxicity in mock-infected HI-HeLa cells (antirhinoviral assay, XTT); format: cell-based
Experimental: (§1) HI-HeLa cells were infected with HRV-14 at a multiplicity of infection (m.o.i.) of 0.13 (virus particles/cell) or mock-infected with medium only. Infected or mock-infected cells were resuspended at 8×10^5 cells per mL and incubated with appropriate concentration of compounds of formulas I and II. Two days later, XTT/PMS was added to test plates and the amount of formazan produced was quantified spectrophotometrically at 450/650 nm. […] The therapeutic index (TI) was calculated by dividing the CC50 by the EC50.
(§2) All strains of human rhinovirus (HRV) for use in this assay were purchased from American Type Culture Collection (ATCC), except for HRV serotype-14, which was produced from the infectious cDNA clone, constructed and supplied to us by Dr. Roland Rueckert at the Institue for Molecular Virology, University of Wisconsin, Madison, Wisc. HRV stocks were propagated, and antiviral assays were perforemd in HI-HeLa cells (ATCC). Cells were grwon in Minimal Essential Medium, available from Life Technologies, with 10% fetal bovine serum.

HRV-14 = experiment: Antirhinoviral HI-HeLa Cell Culture Assay (Cell Protection Assay, XTT dye reduction); format: cell-based, human rhinovirus (HRV) serotype-14; conditions: HI-HeLa cells infected with HRV-14, m.o.i. 0.13; two days; XTT; read-out: EC50
Experimental: In the Cell Protection Assay, the ability of compounds to protect cells against HRV infection was measured by the XTT dye reduction method. This method is described in Weislow, O. S., R. Kiser, D. L. Fine, J. Bader, R. H. Shoemaker, and M. R. Boyd, J. Natl. Cancer Inst. 1989, 81, 577-586, which is incorporated herein by reference.
as §1, §2
The compounds were tested against control compounds WIN 51711, WIN 52084, and WIN 54954, all obtained from Sterling-Winthrop Pharmaceuticals, and control compound Pirodavir, obtained from Janssen Pharmaceuticals.

[1] = molecular target: T1, Recombinant Rhinovirus 3C protease (RVP) serotype-14 (Human rhinovirus 14, UniProt P03303); experiment: Inhibition of Rhinovirus Protease (fluorescence resonance energy transfer assay), serotype 14; format: biochemical, human rhinovirus (HRV); conditions: for kobs/I: progress curves in enzyme start experiments; for INHIB (percent inhibition): 10 minute preincubation with 50 nM RVP
T1 construct: Recombinant Rhinovirus 3C proteases from serotypes 14, 16, 2 or 89; made in house
T1 sequence (P03303 1538-1719): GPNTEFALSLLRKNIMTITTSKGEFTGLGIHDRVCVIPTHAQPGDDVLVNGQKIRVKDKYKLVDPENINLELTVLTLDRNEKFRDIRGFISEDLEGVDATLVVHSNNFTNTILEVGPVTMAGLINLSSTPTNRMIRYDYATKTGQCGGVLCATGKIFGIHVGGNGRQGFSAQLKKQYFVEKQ
Experimental: Stock solution (50 mM, in DMSO) of various compounds were prepared; dilutions were in the same solvent. […] Assays contained 2% DMSO, 50 mM tris pH 7.6, 1 mM EDTA, a compound at the indicated concentrations, approximately 1 μM substrate, and 50-100 nM protease. […] The kobs/I values were obtained from reactions initiated by addition of enzyme rather than substrate. RVP activity is measured in the fluorescence resonance energy transfer assay. […] In the uncleaved peptide, the EDANS fluorescence was quenched by the proximal DABCYL moeity. When the peptide was cleaved, the quenching was relieved, and activity was measured as an increase in fluorescence signal.
In the above table, all data is RVP serotype-14 unless otherwise noted in parentheses. All strains of human rhinovirus (HRV) were purchased from American Type Culture Collection (ATCC), except for serotype 14, which was produced from the infectious cDNA clone constructed and supplied to us by Dr. Roland Rueckert at the Institute for Molecular Virology, University of Wisconsin, Madison, Wisc. […] The data in the column designated kobs/I was measured from progress curves in enzyme start experiments.

[2] = RVP serotype-14, 10 minute preincubation, substrate start, read-out: INHIB (Ki)
[3] = mock-infected HI-HeLa cells, two days, XTT, read-out: CC50
[4] = RVP serotype-14, 10 μM compound

With `CCOC(=O)C=CC(CCC(N)=O)NC(=O)C(Cc1ccccc1)NC(=O)C(NC(=O)SC1CCCC1)C(C)(C)[S+](C)[O-]` (mixture of isomers) [Compound 179, Ethyl-3-(Cyclopentylthiocarbonyl-L-[S(O)-Me-Pen]-L-Phe-L-Gln)-E-Propenoate] the CC50 (HI-HeLa cells) was over 100 µM, the EC50 (HRV-14) was 1.78 µM and the Ki [1, 2] was 0.36 µM. The kobs/I ([1]; RVP serotype-14) was 300,000 M-1 sec-1.
`CC(C)C[C@H](NC(=O)OCc1ccccc1)C(=O)N[C@@H](Cc1ccccc1)C(=O)NC(/C=C/C#N)CCC(N)=O` (mixture of isomers) [Compound 14, 3-(CBZ-L-Leu-L-Phe-DL-Gln)-E-Propenonitrile] showed a CC50 (HI-HeLa cells) of 500 µM and an EC50 (HRV-14) of 17.8 µM.
`CCOC(=O)/C(F)=C\[C@H](CCC#N)NC(=O)[C@H](Cc1ccccc1)NC(=O)[C@H](CC(C)C)NC(=O)OCc1ccccc1` [Compound 1, Ethyl-2-Fluoro-3-[CBZ-L-Leu-L-Phe-L-(Cyanomethyl)-Ala]-E-Propenoate] was tested, and the “INHIB (percent inhibition)” value ([1]; RVP serotype-14) was 77 (50) percent.
Work on `CCNC(=O)/C=C/[C@H](CCC(N)=O)NC(=O)[C@H](Cc1ccccc1)NC(=O)[C@H](CC(C)C)NC(=O)OCc1ccccc1` [Compound 6, N-Ethyl-3-(CBZ-L-Leu-L-Phe-L-Gln)-E-Propenamide] yielded a CC50 (HI-HeLa cells) of over 320 µM, an EC50 (HRV-14) of over 320 µM and a Ki [1, 2] of 32 µM. The kobs/I ([1]; RVP serotype-14) was 350 M⁻¹ s⁻¹.
With `CC(C)C[C@H](NC(=O)OCc1ccccc1)C(=O)N[C@@H](Cc1ccccc1)C(=O)N[C@H](/C=C/S(C)(=O)=O)CCC(N)=O` [Compound 9, Methyl-[2-(CBZ-L-Leu-L-Phe-L-Gln)-E-Vinyl]Sulfone] the CC50 (HI-HeLa cells) was over 320 µM, the EC50 (HRV-14) was over 320 µM and the “INHIB (percent inhibition)” value ([1]; RVP serotype-14, 1 μM compound) was 20(1) percent. It also gave a kobs/I ([1]; RVP serotype-14) of 160 M⁻¹ s⁻¹.
`CC(C)C[C@H](NC(=O)OCc1ccccc1)C(=O)N[C@@H](Cc1ccccc1)C(=O)N[C@H](/C=C/S(=O)(=O)c1ccccc1)CCC(N)=O` [Compound 10, Phenyl-[2-(CBZ-L-Leu-L-Phe-L-Gln)-E-Vinyl]Sulfone] was tested, and the CC50 (HI-HeLa cells) was over 320 µM, the EC50 (HRV-14) was 200 µM and the “INHIB (percent inhibition)” value ([1]; RVP serotype-14, 5 μM compound) was 55(5) percent. For the same molecule, the kobs/I ([1]; RVP serotype-14) was 270 M⁻¹ s⁻¹.
`CC(C)C[C@H](NC(=O)OCc1ccccc1)C(=O)N[C@@H](Cc1ccccc1)C(=O)N[C@H](/C=C/C(=O)O)CCC(N)=O` [Compound 15, 3-(CBZ-L-Leu-L-Phe-L-Gln)-E-Propenoic Acid] was tested, and the CC50 (HI-HeLa cells) was over 100 µM, the EC50 (HRV-14) was over 100 µM and the “INHIB (percent inhibition)” value ([1]; RVP serotype-14) was 55(50) percent. For the same molecule, the kobs/I ([1]; RVP serotype-14) was 27 M⁻¹ s⁻¹.
`CCOC(=O)/C=C/[C@H](CNC(N)=O)NC(=O)[C@H](Cc1ccccc1)NC(=O)[C@H](CC(C)C)NC(=O)OCc1ccccc1` [Compound 16, Ethyl-3-[CBZ-L-Leu-L-Phe-L-(N-carbamyl-amino)-Ala]-E-Propenoate] was tested, and the CC50 (HI-HeLa cells) was over 100 µM, the EC50 (HRV-14) was 32 µM and the “INHIB (percent inhibition)” value ([1]; RVP serotype-14, […] compound) was 40(0.25) percent. The kobs/I ([1]; RVP serotype-14) was 3,500 M-1 sec-1.
`CC(C)C[C@H](NC(=O)OCc1ccccc1)C(=O)N[C@@H](Cc1ccccc1)C(=O)N[C@H](/C=C/C(=O)OC1CCCC1)CCC(N)=O` [Compound 18, Cyclopentyl-3-(CBZ-L-Leu-L-Phe-L-Gln)-E-Propenoate] showed a CC50 (HI-HeLa cells) of over 100 µM, an EC50 (HRV-14) of 0.64 µM and a Ki [1, 2] of 15.3 µM. The kobs/I ([1]; RVP serotype-14) was 7,700 M-1 sec-1.
With `CC(C)C[C@H](NC(=O)OCc1ccccc1)C(=O)N[C@@H](Cc1ccccc1)C(=O)N[C@H](/C=C/C(=O)OCC1CCCC1)CCC(N)=O` [Compound 19, Cyclopentylmethyl-3-(CBZ-L-Leu-L-Phe-L-Gln)-E-Propenoate] the CC50 (HI-HeLa cells) was over 100 µM, the EC50 (HRV-14) was 1.35 µM and the Ki [1, 2] was 35 µM. For the same molecule, the kobs/I ([1]; RVP serotype-14) was 7,900 M-1 sec-1.
`CCOP(=O)(/C=C/[C@H](CCC(N)=O)NC(=O)[C@H](Cc1ccccc1)NC(=O)[C@H](CC(C)C)NC(=O)OCc1ccccc1)OCC` [Compound 20, Diethyl-[2-(CBZ-L-Leu-L-Phe-L-Gln)-E-Vinyl] Phosphonate] showed a CC50 (HI-HeLa cells; [3]) of over 320 µM and an EC50 (HRV-14) of over 320 µM.
`CCOC(=O)/C=C/[C@H](CCC(N)=O)NC(=O)[C@H](Cc1ccc(Cl)cc1)NC(=O)c1cc2c(OC)cccc2[nH]1` [Compound 26, Ethyl-3-[N-(4-Methoxyindole-2-Carbonyl)-L-(4-Cl-Phe)-L-Gln]-E-Propenoate] was tested, and the CC50 (HI-HeLa cells) was 44.7 µM, the EC50 (HRV-14) was 2 µM and the “INHIB (percent inhibition)” value ([1]; RVP serotype-14, 0.1 μM compound) was 52(0.1) percent. The kobs/I ([1]; RVP serotype-14) was 5,400 M-1 sec-1.
For `CCOC(=O)/C=C/[C@H](CCC(N)=O)NC(=O)[C@H](Cc1cccc(F)c1)NC(=O)c1cc2c(OC)cccc2[nH]1` [Compound 28, Ethyl-3-[N-(4-Methoxyindole-2-Carbonyl)-L-(3-F-Phe)-L-Gln]-E-Propenoate], the CC50 (HI-HeLa cells) was 63.1 µM, the EC50 (HRV-14) was 4.5 µM and the Ki [1, 2] was 57 µM. For the same molecule, the kobs/I ([1]; RVP serotype-14) was 4,000 M-1 sec-1.
Work on `CCOC(=O)/C=C/[C@H](CCC(N)=O)NC(=O)[C@H](Cc1ccccc1)NC(=O)OCc1ccccc1` [Compound 30, Ethyl-3-(CBZ-L-Phe-L-Gln)-E-Propenoate] yielded a CC50 (HI-HeLa cells) of 100 µM, an EC50 (HRV-14) of 5.6 µM and a Ki [1, 2] of 373 µM. The kobs/I ([1]; RVP serotype-14) was 430 M⁻¹ s⁻¹.
In the case of `CCCS(=O)(=O)N[C@@H](Cc1ccccc1)C(=O)N[C@H](/C=C/C(=O)OCC)CCC(N)=O` [Compound 31, Ethyl-3-[N-(Propylsulfonyl)-L-Phe-L-Gln]-E-Propenoate], the CC50 (HI-HeLa cells) is reported as over 100 µM, the EC50 (HRV-14) is reported as 50.1 µM and the “INHIB (percent inhibition)” value [1, 4] is reported as 25(10) percent. The kobs/I ([1]; RVP serotype-14) was 21 M⁻¹ s⁻¹.
`CCOC(=O)/C=C/[C@H](CCC(N)=O)NC(=O)[C@H](Cc1ccccc1)NS(=O)(=O)Cc1ccccc1` [Compound 32, Ethyl-3-[N-(Benzylsulfonyl)-L-Phe-L-Gln]-E-Propenoate] was tested, and the CC50 (HI-HeLa cells) was over 100 µM, the EC50 (HRV-14) was 10 µM and the kobs/I ([1]; RVP serotype-14) was 280 M⁻¹ s⁻¹.
`CCOC(=O)/C=C/[C@H](CCC(N)=O)NC(=O)[C@H](Cc1ccccc1)NS(=O)(=O)CC` [Compound 33, Ethyl-3-[N-(Ethylsulfonyl)-L-Phe-L-Gln]-E-Propenoate] was tested, and the CC50 (HI-HeLa cells) was over 100 µM, the “INHIB (percent inhibition)” value [1, 4] was 24(10) percent and the kobs/I ([1]; RVP serotype-14) was 33 M⁻¹ s⁻¹.
Molecule `CC(C)C[C@H](NC(=O)OCc1ccccc1)C(=O)N[C@@H](Cc1ccccc1)C(=O)N[C@H](/C=C/CSc1ccccn1)CCC(N)=O` [Compound 75] has a CC50 (HI-HeLa cells) of over 100 µM and an EC50 (HRV-14) of 5 µM.
`C/C(=C\[C@H](CCC(N)=O)NC(=O)[C@H](Cc1ccccc1)NC(=O)[C@H](CC(C)C)NC(=O)OCc1ccccc1)C(=O)O` [Compound 144] was tested, and the CC50 (HI-HeLa cells) was over 320 µM and the EC50 (HRV-14) was 104 µM.
With `CCOC(=O)/C=C/[C@H](CCC(N)=O)NC(=O)[C@H](Cc1ccc(C)cc1)NC(=O)[C@@H](NC(=O)SC1CCCC1)C(C)(C)C` [Compound 174, Ethyl-3-[Cyclopentylthiocarbonyl-L-α-(t-Butyl-Gly)-L-(4-Me-Phe)-L-Gln]-E-Propenoate] the CC50 (HI-HeLa cells; [3]) was over 100 µM and the EC50 (HRV-14) was 0.056 µM.
In the case of `Cc1ccc(CC(NC(=O)C(NC(=O)SC2CCCC2)C(C)(C)C)C(=O)NC(C=CC(=O)OCc2ccccc2)CCC(N)=O)cc1` (centres unmarked) [Compound 186], the kobs/I ([1]; RVP serotype-14) is reported as 950,000 M-1 sec-1.
With `COCCOC(=O)/C=C/[C@H](CCC(N)=O)NC(=O)[C@H](Cc1ccc(C)cc1)NC(=O)[C@@H](NC(=O)SC1CCCC1)C(C)(C)C` [Compound 188] the Ki [1] was 0.16 µM and the kinact/KI ([1]; pH 7.6, read-out: kobs/I) was 580000 M⁻¹ s⁻¹.
For `CC(=O)N1CC/C(=C\[C@H](CCC(N)=O)NC(=O)[C@H](Cc2ccc(F)cc2)NC(=O)[C@@H](NC(=O)SC2CCCC2)C(C)(C)C)C1=O` [Compound 189], the kobs/I ([1]; RVP serotype-14) was 386,000 M-1 sec-1.
With `CCOC(=O)/C=C/[C@H](CCC(N)=O)NC(=O)[C@H](Cc1ccc(C)cc1)NC(=O)[C@@H](NC(=O)OC1CCCC1)C(C)(C)C` [Compound 190] the kobs/I ([1]; RVP serotype-14) was 29,230 M-1 sec-1.
Work on `Cc1cc(CCCCCCCOc2ccc(C3=NCCO3)cc2)on1` [WIN 51711, reference compound] yielded a CC50 (HI-HeLa cells; [3]) of over 60 µM and an EC50 (HRV-14) of 0.78 µM.
`Cc1cc(CCCCCCCOc2ccc(C3=N[C@@H](C)CO3)cc2)on1` [WIN 52084, reference compound] gave a CC50 (HI-HeLa cells; [3]) of over 10 µM and an EC50 (HRV-14) of 0.07 µM.
